# PMC9264725 (European Journal of Medicinal Chemistry, 2022)
# Where two headings read alike, the source gives them in different places.
# Key:
# [1] = system: M^Pro; conditions: cited from earlier work
# [2] = target: M^Pro-eGFP ectopically expressed in 293T cells (Severe acute respiratory syndrome coronavirus 2, UniProt P0DTD1); experiment: cell-based; format: cell-based, SARS-CoV-2
# [3] = system: SARS-CoV-2 Delta strain; experiment: Plaque reduction neutralization test in Vero E6 cells, Delta; format: cell-based; conditions: PRNT, three days
# [4] = system: SARS-CoV-2 USA-WA1/2020 strain; experiment: Plaque reduction neutralization test in Vero E6 cells, USA-WA1/2020; format: cell-based; conditions: PRNT, three days
# [5] = system: SARS-CoV-2 Beta strain; experiment: Plaque reduction neutralization test in Vero E6 cells, Beta; format: cell-based; conditions: PRNT, three days
# [6] = system: SARS-CoV-2; conditions: read-out: EC50 as SARS-CoV-2 inhibitor; cited from earlier work
# [7] = rats, oral administration; cited from earlier work
compound,measurement,setting,value
CC(C)(C)NC(=O)N[C@H](C(=O)N1C[C@H]2[C@@H]([C@H]1C(=O)NC(CC1CCC1)C(=O)C(N)=O)C2(C)C)C(C)(C)C (stereo partly shown) [Boceprevir],IC50,"[1]; read-out: Enzymatic IC50, ref 15",8 µM
same,IC50,"[1]; read-out: Enzymatic IC50, ref 16",4.2 ± 0.6 µM
CC(C)[C@H](NC(=O)NC(C)(C)C)C(=O)N[C@@H](CC1CC1)C(=O)N[C@H](C=O)C[C@@H]1CCNC1=O [MPI39],EC50,[2],> 10 µM
CC(C)(C)CC(=O)N[C@H](C(=O)N1C[C@H]2[C@@H]([C@H]1C(=O)N[C@H](C=O)C[C@@H]1CCNC1=O)C2(C)C)C(C)(C)C [MPI40],Antiviral EC50,[3],no inhibition at all tested concentrations
same,Antiviral EC50,[4],no inhibition at all tested concentrations
same,Antiviral EC50,[5],no inhibition at all tested concentrations
CC(C)(C)OC(=O)N[C@H](C(=O)N1C[C@H]2[C@@H]([C@H]1C(=O)N[C@H](C=O)C[C@@H]1CCNC1=O)C2(C)C)C(C)(C)C [MPI43],in cellulo potency higher than MPI40,[2],20 fold
MPI8,IC50,[1]; read-out: IC50 (in vitro potency),~0.1 µM
same,EC50,[6],0.03 µM
same,half-life,[7],1.22 h
